Reference: patent publication US9512108B2, “9,9,10,10-Tetrafluoro-9,10-dihydrophenanthrene hepatitis C virus inhibitor and application thereof” (NANJING SANHOME PHARMACEUTICAL CO., LTD., priority 2013, dated 2016)

Legend:
Type in all cases: cell-based
HCV genotype 1a replicon = test: Anti-HCV-1a replicon activity (luciferase, Bright-Glo); settings: Hepatitis C virus, Huh-7, 72 h, read-out: EC50 against HCV-1a replicon
Method: (§1) 1) Preparation of compounds: adding 75 μl of the compounds of the present invention at the above concentration gradient to a 96-well plate using POD810 system, with each concentration for each compound in duplicate;
(§2) 2) Preparation of cells: collecting HCV 1b replicon cells in logarithmic phase and resuspending them in DMEM complete medium, and then adding 75 μl of the cell suspension to each well of the above 96-well plate (8×10^3 cells/well); at the same time, establishing zero percent effect (ZPE) control group and hundred percent effect (HPE) control group, with ZPE group using complete culture medium containing 0.5% DMSO instead of the compound, and the HPE group merely containing DMEM medium in the wells.
(§3) 3) Cell culture: placing the 96-well plate in a 37° C., 5% CO2 incubator and culturing for 3 days.
(§4) 5) Anti-HCV replicon activity assay: adding luciferase luminescence substrate Bright-Glo to each well, and detecting luminescence signal values using the multimode microplate reader within 5 min, with the raw data (RLU) being used for calculation of the anti-HCV activities of the compounds;
(§5) 6) Data processing: processing the raw data using the following formula into the inhibition percentage of the compound against HCV replicon (Inhibition %) and the percentage of cell viability (Viability %): Inhibition %=(RLUZPE−RLUCPD)/(RLUZPE−RLUHPE)×100 Viability %=(RFUCPD−RFUHPE)/(RFUZPE−RFUHPE)×100 wherein CPD: the fluorescence signal value of the well of the compound; ZPE (zero percent effect): the fluorescence signal value of the zero percent effect control; HPE (hundred percent effect): the fluorescence signal value of the hundred percent effect control.
(§6) The Inhibition % and Viability % were introduced into GraphPad Prism software for data processing, respectively, to obtain the half effective concentration EC50 of the compound against HCV replicon and the half cytotoxic concentration CC50.
(§7) HCV 1a replicon cells, i.e., Huh7 cell line stably transfected with HCV genotype 1a replicon (provided by WuXi AppTec (Shanghai) Co., Ltd.) were used as the experimental cells. As described above for the HCV 1b replicon cell system, the HCV genotype 1a replicon cell systems were similarly prepared.
(§8) The anti-HCV-1a activities of the compounds of the present invention were tested according to the method for testing the anti-HCV-1b replicon activity in Experimental Example 1.

[1] = Cell viability test (CellTiter-Fluor) in HCV 1a replicon cells; settings: human, Huh7 cells stably transfected with HCV genotype 1a replicon; HCV 1a replicon Huh7 cells, 3 days culture; read-out: CC50 (half cytotoxic concentration)
Method: (§9) 4) Cell viability test: after adding detection reagent for fluorescence assay of cell growth to each well and culturing the cells in a 37° C., 5% CO2 incubator for one hour, detecting the fluorescence signal values using the multimode microplate reader, with the raw data (RFU) being used for calculation of the cytotoxicity of the compounds;
as §5, §6, §7, §8

HCV genotype 1b replicon = test: Anti-HCV-1b replicon activity (luciferase, Bright-Glo); settings: Hepatitis C virus, Huh-7, 72 h, read-out: EC50 against HCV-1b replicon
Method: (§10) Each of the compounds prepared in the above examples of the present invention was dissolved at 10 mM in DMSO, then diluted to 50 μM with DMEM complete medium, then diluted to 20 nM with complete medium containing 0.5% DMSO, and then serially diluted by 3-fold, to obtain a total of 10 concentrations.
(§11) HCV 1b replicon cells, i.e., Huh7 cell line stably transfected with HCV genotype 1b replicon, were provided by WuXi AppTec (Shanghai) Co., Ltd. Specific preparation methods of Huh7 lb replicon cell system can be found in Lohmann V, Korner F, Koch J, Herian U, Theilmann L, Bartenschlager R., Replication of subgenomic hepatitis C virus RNAs in a hepatoma cell line, Science 285 (5424): 110-113 (1999).
as §1, §2, §3, §4, §5, §6

[2] = Cell viability test (CellTiter-Fluor) in HCV 1b replicon cells; settings: human, Huh7 cells stably transfected with HCV genotype 1b replicon; HCV 1b replicon Huh7 cells, 3 days culture; read-out: CC50 (half cytotoxic concentration)
Method: as §10, §11, §1, §2, §3, §9, §5, §6

SMILES: COC(=O)N[C@H](C(=O)N1CCC[C@H]1c1ncc(-c2ccc3c(c2)C(F)(F)C(F)(F)c2cc(-c4cnc([C@@H]5CCCN5C(=O)[C@@H](NC(=O)OC)C(C)C)[nH]4)ccc2-3)[nH]1)C(C)C [Example 1, Dimethyl (2S,2′S)-1,1′-((2S,2′S)-2,2′-(5,5′-(9,9,10,10-tetrafluoro-9,10-dihydrophenanthren-2,7-diyl)bis(1H-imidazol-5,2-diyl))bis(pyrrolidin-2,1-diyl))bis(3-methyl-1-oxobutan-2,1-diyl)dicarbamate]
- EC50 (HCV genotype 1a replicon): 0.19 nM
- CC50 at 3 days [1]: > 10 nM
- EC50 (HCV genotype 1b replicon): 4.6 pM
- CC50 at 3 days [2]: > 10 nM

SMILES: COC(=O)N[C@H](C(=O)N1CC2(C[C@H]1c1ncc(-c3ccc4c(c3)C(F)(F)C(F)(F)c3cc(-c5ccc6nc([C@@H]7CCCN7C(=O)[C@@H](NC(=O)OC)C(C)C)[nH]c6c5)ccc3-4)[nH]1)OCCO2)C(C)C [Example 11, Methyl N-((2S)-1-((S)-2-(6-(7-((S)-2-(7-((S)-2-((methoxycarbonyl)amino)-3-methylbutanoyl)-1,4-dioxa-7-azaspiro[4.4]nonan-8-yl)-1H-imidazol-5-yl)-9,9,10,10-tetrafluoro-9,10-dihydrophenanthren-2-yl)-1H-benzo[d]imidazol-2-yl)pyrrolidin-1-yl)-3-methyl-1-oxobutan-2-yl)carbamate]
- EC50 (HCV genotype 1a replicon): 0.079 nM
- CC50 at 3 days [1]: > 10 nM
- EC50 (HCV genotype 1b replicon): 6 pM
- CC50 at 3 days [2]: > 10 nM
